Test results from article PMC5727059, “Antagonistic effect of dopamine structural analogues on human GABAρ1 receptor” (Scientific Reports, 2017).
Entries after “also recorded” stand apart in the source; their conditions may differ. Read-outs that look alike come from different tables or passages of the source.

Columns and labels:
[1] = biological target: T1, human GABAρ1 (Homo sapiens, UniProt P24046); test: Inhibition of GABA currents by co-application of 3 µM GABA and analogue, two-microelectrode voltage clamp in X. laevis oocytes; type: cell-based; settings: for extent of inhibition of GABA currents at high concentrations: maximum inhibition compared with full inhibition (100%); for Emax: read-out: Maximal effect on GABA currents, % Inh; for effect on the responses generated by 3 μM GABA: concentrations up to 20 mM, data not shown;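 on all read-outs here: oocytes expressing human GABAρ1 from injected mRNA, recorded 1–5 days later, clamped at −60 mV, room temperature, compounds bath-applied at pH 7.4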
T1 construct: expressed in transfected cells; host or cells: Xenopus laevis oocytes injected with in vitro transcribed mRNA
T1 sequence (P24046 22-479): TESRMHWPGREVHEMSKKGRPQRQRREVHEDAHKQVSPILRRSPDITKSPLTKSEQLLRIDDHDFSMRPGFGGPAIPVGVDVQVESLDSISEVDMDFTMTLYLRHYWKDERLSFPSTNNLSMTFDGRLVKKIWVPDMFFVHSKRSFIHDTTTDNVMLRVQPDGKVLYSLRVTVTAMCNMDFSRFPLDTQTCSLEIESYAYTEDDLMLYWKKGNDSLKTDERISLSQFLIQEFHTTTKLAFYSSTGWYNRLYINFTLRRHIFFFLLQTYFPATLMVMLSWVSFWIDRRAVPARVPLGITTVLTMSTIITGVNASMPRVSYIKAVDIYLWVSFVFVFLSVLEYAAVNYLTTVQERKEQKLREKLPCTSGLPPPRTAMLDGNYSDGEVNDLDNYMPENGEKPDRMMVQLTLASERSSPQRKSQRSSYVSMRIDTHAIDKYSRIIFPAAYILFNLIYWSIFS

[2] = biological target: LGC-53 (Caenorhabditis elegans, UniProt H2KYN9); test: cell-based; type: cell-based; settings: for Emax: read-out: Maximal effect versus maximal response to DA, % current; for gating or modulation of LGC-53: high concentrations (up to 1 mM);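 on all read-outs here: LGC-53 expressed in frog oocytes, two-electrode voltage clamp at −60 mV, analogues bath-applied, full or partial agonism judged by maximal effect against DA applied before and after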
LGC-53, sequence (H2KYN9 entry or part of it): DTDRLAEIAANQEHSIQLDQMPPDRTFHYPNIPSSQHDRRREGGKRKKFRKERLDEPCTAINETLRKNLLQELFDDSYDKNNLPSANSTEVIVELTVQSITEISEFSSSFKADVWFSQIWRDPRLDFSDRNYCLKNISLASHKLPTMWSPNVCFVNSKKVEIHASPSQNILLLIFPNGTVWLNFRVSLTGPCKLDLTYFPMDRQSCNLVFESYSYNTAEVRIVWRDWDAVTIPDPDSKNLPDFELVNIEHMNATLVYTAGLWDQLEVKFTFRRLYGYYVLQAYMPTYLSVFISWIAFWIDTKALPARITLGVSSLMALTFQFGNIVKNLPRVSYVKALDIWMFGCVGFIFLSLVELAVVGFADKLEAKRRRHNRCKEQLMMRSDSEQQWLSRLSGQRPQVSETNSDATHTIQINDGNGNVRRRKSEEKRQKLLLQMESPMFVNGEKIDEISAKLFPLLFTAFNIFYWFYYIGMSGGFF

[3] = biological target: T1, human GABAρ1; test: Modulation of activated GABAρ1: analogue applied during the current plateau upon activation with 3 µM GABA, oocytes; type: cell-based; settings: for Efficacy % to inhibit GABA responses: activated GABA channels (Fig. 5D empty bars), applied during 3 µM GABA perfusion
[4] = biological target: T1, human GABAρ1; test: Competition assays: GABA concentration-response curves in presence of 3-MT, oocytes; type: cell-based
[5] = biological target: T1, human GABAρ1; test: Current-voltage ramp (−120 to +70 mV) of GABA currents in presence of the IC50 of each compound, oocytes; type: cell-based; settings: 3 µM GABA, compound at its IC50; GABA alone as reference
Method: All these compounds are ionized at pH 7.4.
Supplementary Figure S2. I/V Curves A) Current−voltage relations for GABA currents modulated in presence of DA
analogues. B). Percentage of inhibition of DA analogues (for each compound the IC50s were tested) in the currents
Reverse potentials were: -35.25 ± 1.04 mV, -35.69 ±
reverse potential was -35.07 ± 0.90 mV.
(1 picture or pasted object on this page, not shown here)

[6] = biological target: T1, human GABAρ1; set-up: method as in Ochoa de la Paz et al., 2012; settings: Table 1, ref Ochoa de la Paz et al., 2012, cited from earlier work; for IC50: read-out: GABA ρ1 (Human) IC50, oocytes
[7] = receptor activated with GABA 3 µM
[8] = Fig. 7C, maximal concentration tested, DA 300 µM

## COc1cc(CC(=O)O)ccc1O [HVA, Homovanillic acid]
[1]; Table 1
  GABA ρ1 (Human) Antagonist: Full or partial: partial
[1]; Table 1, oocytes
  IC50: 1970 ± 211 µM
[1]
  extent of inhibition of GABA currents at high concentrations: significantly different from the full inhibition
  Emax: 86.5 ± 1.89%
[2]; Table 1
  LGC-53 EC50 (mM): N.E
[3]; [7]
  change in potency/efficacy between activated receptor and co-application protocols: did not show differences in the efficacy or potency

## NCCc1ccccc1 [β-PEA, 2-Phenylethylamine]
[1]
  IC50: 1790 ± 104 µM
  Emax: 97.3 ± 2.73%
[1]; Table 1
  GABA ρ1 (Human) Antagonist: Full or partial: full
[2]
  EC50: 1.33 ± 0.433 mM
  agonist type on LGC-53: partial agonists
[2]; [8]
  Emax: 48.5 ± 10.4%
[2]; Table 1
  LGC-53 Agonist: Full or partial: partial
[3]
  Efficacy % to inhibit GABA responses: 63.62 ± 11.44%
[3]; [7]
  decrease of potency on activated receptor versus co-application: 2 fold

## O=C(O)Cc1ccc(O)c(O)c1 [DOPAC, 3,4-Dihydroxyphenylacetic acid]
[1]; Table 1
  GABA ρ1 (Human) Antagonist: Full or partial: partial
[1]; Table 1, oocytes
  IC50: 2250 ± 258 µM
[1]
  extent of inhibition of GABA currents at high concentrations: significantly different from the full inhibition
  Emax: 93.6 ± 2.41%
[2]; Table 1
  LGC-53 EC50 (mM): N.E
[3]; [7]
  change in potency/efficacy between activated receptor and co-application protocols: did not show differences in the efficacy or potency

## NCCCC(=O)O [GABA, γ-Aminobutyric acid]
[4]; 3-MT at its IC25
  Hill number of GABA concentration-response curve: 1.38 ± 0.24
[4]; 3-MT at its IC50
  Hill number of GABA concentration-response curve: 1.40 ± 0.27
[4]; 3-MT at its IC75
  Hill number of GABA concentration-response curve: 1.90 ± 0.36
[4]; GABA alone
  Hill number of GABA concentration-response curve: 1.34 ± 0.37
[2]
  activity on LGC-53: not modulated; also recorded: neither activated LGC-53 nor modulated the DA responses
  gating or modulation of LGC-53: Neither GABA nor 3-MT gated the channel or showed an evident modulatory effect
[5]
  reversal potential of GABA currents: -35.07 ± 0.90 mV

## NCCc1ccc(O)cc1 [Tyr, Tyramine]
[6]
  GABA ρ1 (Human) Antagonist: Full or partial: full
  IC50: 550 ± 12 µM
[2]
  agonist type on LGC-53: partial agonists
[2]; [8]
  Emax: 64.7 ± 9.6%
[2]; Table 1
  LGC-53 Agonist: Full or partial: partial
[2]; Table 1, read-out: LGC-53 EC50
  EC50: 2.18 ± 0.482 mM

## COc1cc(CCN)ccc1O [3-MT, 3-Methoxytyramine]
[1]; Table 1
  GABA ρ1 (Human) Antagonist: Full or partial: full
[1]
  extent of inhibition of GABA currents at high concentrations: Full inhibition
  Emax: 100 ± 2.17%
[1]; read-out: GABA ρ1 (Human) IC50, Table 1, oocytes
  IC50: 285 ± 3 µM
[2]
  activity on LGC-53: inactive
  gating or modulation of LGC-53: Neither GABA nor 3-MT gated the channel or showed an evident modulatory effect
[2]; Table 1
  LGC-53 EC50 (mM): N.E
[5]
  reversal potential of GABA currents: -35.25 ± 1.04 mV
[3]
  Efficacy % to inhibit GABA responses: 51.65 ± 6.93%
[3]; [7]
  decrease of potency on activated receptor versus co-application: 2 fold

## N[C@@H](Cc1ccc(O)c(O)c1)C(=O)O [L-DOPA, L-3,4-dihydroxyphenylalanine]
[1]; Table 1, oocytes
  GABA ρ1 (Human) IC50 (mM): N.E
[2]; Table 1
  LGC-53 EC50 (mM): N.E

## NCCCCO [4-AM-1-OH, 4-Amino-1-butanol]
[1]; Table 1
  GABA ρ1 (Human) Antagonist: Full or partial: full
[1]; Table 1, oocytes
  IC50: 3910 ± 544 µM
[1]
  Emax: 98.3 ± 7.3%
[2]; Table 1
  LGC-53 EC50 (mM): N.E
[3]
  Efficacy % to inhibit GABA responses: 65.50 ± 4.77%
[3]; receptor activated with GABA 3 µM, not statistically significant
  increase of potency on activated receptor versus co-application: about 25%

## NCCc1ccc(O)c(O)c1 [DA, Dopamine]
[1]; DA up to 1 mM, no GABA
  currents generated by the compound alone in oocytes injected with human ρ1: did not generate evident currents
[1]
  extent of inhibition of GABA currents at high concentrations: Full inhibition
  Emax: 94.3 ± 5.84%
[6]
  GABA ρ1 (Human) Antagonist: Full or partial: full
  IC50: 210 ± 1.12 µM
[2]
  LGC-53 Agonist: Full or partial: full
[2]; EC50 on LGC-53
  EC50: 0.00415 ± 0.0011 mM
[2]; LGC-53 EC50 (mM)
  EC50: 0.0042 ± 0.001 mM
[3]
  Efficacy % to inhibit GABA responses: 61.94 ± 6.66%
[3]; [7]
  decrease of potency on activated receptor versus co-application: around 10 fold

## CNC[C@H](O)c1ccc(O)c(O)c1 [AD, Adrenaline]
[1]; Table 1, oocytes
  GABA ρ1 (Human) IC50 (mM): N.E
[1]
  effect on the responses generated by 3 μM GABA: failed to elicit any effect
[2]
  LGC-53 Agonist: Full or partial: partial
  agonist type on LGC-53: partial agonists
  Emax: 59.2 ± 9.4%
[2]; LGC-53 EC50 (mM)
  EC50: 3.8 ± 0.803 mM

## NC[C@H](O)c1ccc(O)c(O)c1 [NAD, Noradrenaline]
[1]; Table 1, oocytes
  GABA ρ1 (Human) IC50 (mM): N.E
[1]
  effect on the responses generated by 3 μM GABA: failed to elicit any effect
[2]
  EC50: 0.137 ± 0.072 mM
  Emax: 61 ± 13%
[2]; Table 1
  LGC-53 Agonist: Full or partial: partial
